Measured values as given in patent US7276603B2, “Benzofuranyl-and benzothienyl-piperazinyl quinolines and methods of their use” (Wyeth, priority 2003, dated 2007).

Experiments:
[1] = target: T1, human 5-HT1A receptors (Homo sapiens, UniProt P08908); assay: displacement of [3H] 8-OH-DPAT from the 5-HT1A serotonin receptor; assay type: binding; conditions: CHO cells stably transfected with human 5-HT1A receptors
T1 construct: expressed in transfected cells; host or cells: CHO cells
T1 sequence (P08908 1-422): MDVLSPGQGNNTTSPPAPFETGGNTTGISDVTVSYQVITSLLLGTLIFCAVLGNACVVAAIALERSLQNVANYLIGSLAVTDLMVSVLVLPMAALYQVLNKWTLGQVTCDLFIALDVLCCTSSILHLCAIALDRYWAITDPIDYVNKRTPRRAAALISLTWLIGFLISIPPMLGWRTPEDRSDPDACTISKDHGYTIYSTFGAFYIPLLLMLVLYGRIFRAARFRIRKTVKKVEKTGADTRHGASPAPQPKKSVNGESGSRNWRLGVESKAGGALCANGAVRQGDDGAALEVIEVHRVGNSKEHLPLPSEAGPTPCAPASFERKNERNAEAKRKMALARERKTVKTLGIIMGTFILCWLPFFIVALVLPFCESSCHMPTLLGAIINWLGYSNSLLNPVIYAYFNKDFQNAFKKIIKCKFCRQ

[2] = target: 5-HT transporter (Rattus norvegicus, UniProt P31652); assay: Rat Brain 3H-Paroxetine Binding Assay (RB 5HT Transporter); conditions: rat frontal cortical membranes; 3H-paroxetine 0.1 nM, 60 min, 25° C.
Chain of 5-HT transporter (P31652 whole entry): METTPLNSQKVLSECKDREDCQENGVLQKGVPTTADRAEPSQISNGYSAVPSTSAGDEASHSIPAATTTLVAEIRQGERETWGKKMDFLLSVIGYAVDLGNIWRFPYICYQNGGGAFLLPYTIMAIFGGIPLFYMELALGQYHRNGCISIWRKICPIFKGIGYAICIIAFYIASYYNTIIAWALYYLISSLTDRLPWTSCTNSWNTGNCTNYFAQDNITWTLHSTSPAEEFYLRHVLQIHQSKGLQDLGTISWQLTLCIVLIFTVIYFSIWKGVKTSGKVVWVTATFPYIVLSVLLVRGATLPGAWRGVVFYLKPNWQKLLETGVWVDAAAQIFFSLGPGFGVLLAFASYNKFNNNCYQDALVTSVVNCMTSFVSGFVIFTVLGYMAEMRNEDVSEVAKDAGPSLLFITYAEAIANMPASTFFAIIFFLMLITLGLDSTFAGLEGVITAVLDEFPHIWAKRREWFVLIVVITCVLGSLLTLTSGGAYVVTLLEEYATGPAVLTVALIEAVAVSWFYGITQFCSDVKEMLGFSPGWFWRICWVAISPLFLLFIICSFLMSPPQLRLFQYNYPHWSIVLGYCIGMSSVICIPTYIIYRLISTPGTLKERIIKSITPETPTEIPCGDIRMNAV
From the text: Rat Brain ^3H-Paroxetine Binding Assay (RB 5HT Transporter):
This assay was used to determine a compound's affinity of the 5-HT transporter.
All reactions were terminated by the addition of ice cold Tris buffer followed by rapid filtration using a Tom Tech filtration device to separate bound from free ^3H-paroxetine.

Structure (SMILES) | Ki [1] [nM] | Ki [2] [nM]
COc1cccc2c1occ2[C@H]1CC[C@H](N2CCN(c3ccc(Cl)c4cccnc34)CC2)CC1 [Compound 64, 5-chloro-8-{4-[4-trans(7-methoxy-1-benzofuran-3-yl)cyclohexyl]piperazin-1-yl}quinoline] | 18.7 | 49
Cc1cc(N2CCN(CC(C)c3coc4ccccc34)CC2)c2ncccc2c1 (stereo not drawn) [Compound 30, 8-{4-[2-(1-benzofuran-3-yl)propyl]-1-piperazinyl}-6-methyl-quinoline] | 79.1 | 93
COc1ccc2occ(CC(C)N3CCN(c4cccc5cccnc45)CC3)c2c1 (stereo not drawn) [Compound 38, 8-{4-[2-(5-methoxy-1-benzofuran-3-yl)-1-methylethyl)piperazin-1-yl]quinoline] | 0.14 | 
Clc1cc(N2CCN(CCc3coc4ccc(Cl)cc34)CC2)c2ncccc2c1 [Compound 13, 8-{4-[2-(5-chloro-1-benzofuran-3-yl)ethyl]-1-piperazinyl}-6-chloro-quinoline] | 41.3 | 64
COc1cc(N2CCN([C@H]3CC[C@H](c4csc5ccc(F)cc54)CC3)CC2)c2ncccc2c1 [Compound 50, 6-methoxy-8-{4-[4-trans(5-fluoro-1-benzothien-3-yl)cyclohexyl]piperazin-1-yl}quinoline] | 25.9 | 10
CC(CN1CCN(c2cccc3cccnc23)CC1)c1coc2ccccc12 (stereo not drawn) [Compound 27, 8-{4-[2-(1-benzofuran-3-yl)propyl]-1-piperazinyl}quinoline] | 19.3 | 32
Clc1ccc2c(CCN3CCN(c4cccc5cccnc45)CC3)coc2c1 [Compound 5, 8-{4-[2-(6-chloro-1-benzofuran-3-yl)ethyl]-1-piperazinyl}-quinoline] | 0.73 | 31
CC(CN1CCN(c2cc(Cl)cc3cccnc23)CC1)c1coc2ccccc12 (stereo not drawn) [Compound 28, 8-{4-[2-(1-benzofuran-3-yl)propyl]-1-piperazinyl}-6-chloro-quinoline] | 110 | 73
CC(CN1CCN(c2cc(F)cc3cccnc23)CC1)c1coc2ccccc12 (stereo not drawn) [Compound 29, 8-{4-[2-(1-benzofuran-3-yl)propyl]-1-piperazinyl}-6-fluoro-quinoline] | 112 | 68
Fc1cc(N2CCN([C@H]3CC[C@@H](c4coc5ccccc54)CC3)CC2)c2ncccc2c1 [Compound 55, 8-{4-[4-cis(1-benzofuran-3-yl)cyclohexyl]-1-piperazinyl}-6-fluoroquinoline] | 0.11 | 116
Clc1ccc2occ(CCN3CCN(c4cccc5cccnc45)CC3)c2c1 [Compound 12, 8-{4-[2-(5-chloro-1-benzofuran-3-yl)ethyl]-1-piperazinyl}-quinoline] | 2.92 | 11
Fc1cc(N2CCN(CCc3coc4ccccc34)CC2)c2ncccc2c1 [Compound 1, 8-{4-[2-(1-benzofuran-3-yl)ethyl]-1-piperazinyl}-6-fluoroquinoline] |  | 6.5
COc1cccc2c(CCN3CCN(c4cccc5cccnc45)CC3)coc12 [Compound 18, 8-{4-[2-(7-methoxy-1-benzofuran-3-yl)ethyl]-1-piperazinyl}-quinoline] | 0.11 | 0.65
Clc1cc(N2CCN(CCc3coc4ccccc34)CC2)c2ncccc2c1 [Compound 2, 8-{4-[2-(1-benzofuran-3-yl)ethyl]-1-piperazinyl}-6-chloroquinoline] | 124 | 176
Cc1cc(N2CCN(CCc3coc4cc(Cl)ccc34)CC2)c2ncccc2c1 [Compound 8, 8-{4-[2-(6-chloro-1-benzofuran-3-yl)ethyl]-1-piperazinyl}-6-methyl-quinoline] | 36.7 | 403
Cc1cc(N2CCN(CCc3coc4ccc(Cl)cc34)CC2)c2ncccc2c1 [Compound 14, 8-{4-[2-(5-chloro-1-benzofuran-3-yl)ethyl]-1-piperazinyl}-6-methyl-quinoline] | 13.5 | 45
COc1ccc2c(CCN3CCN(c4cccc5cccnc45)CC3)coc2c1 [Compound 9, 8-{4-[2-(6-methoxy-1-benzofuran-3-yl)ethyl]-1-piperazinyl}-quinoline] | 0.37 | 33
Fc1cc(N2CCN([C@H]3CC[C@@H](c4csc5ccc(F)cc54)CC3)CC2)c2ncccc2c1 [Compound 47, 6-fluoro-8-{4-[4-cis(5-fluoro-1-benzothien-3-yl)cyclohexyl]piperazin-1-yl}quinoline] | 1.72 | 
COc1cccc2c(CC(C)N3CCN(c4cc(C)cc5cccnc45)CC3)coc12 (stereo not drawn) [Compound 37, 6-methyl-8-{4-[2-(7-methoxy-1-benzofuran-3-yl)-1-methylethyl)piperazin-1-yl]quinoline] |  | 471
Clc1cc(N2CCN(CCc3coc4cc(Cl)ccc34)CC2)c2ncccc2c1 [Compound 7, 8-{4-[2-(6-chloro-1-benzofuran-3-yl)ethyl]-1-piperazinyl}-6-chloro-quinoline] | 15.4 | 

Second part, the compound after the results:

Ki [1] [nM] | Ki [2] [nM] | Structure (SMILES)
0.92 | 87 | COc1cccc2c1occ2[C@H]1CC[C@@H](N2CCN(c3ccc(Cl)c4cccnc34)CC2)CC1 [Compound 63, 5-chloro-8-{4-[4-cis(7-methoxy-1-benzofuran-3-yl)cyclohexyl]piperazin-1-yl}quinoline]
1.22 |  | COc1cccc2c(CC(C)N3CCN(c4cccc5cccnc45)CC3)coc12 (stereo not drawn) [Compound 35, 8-{4-[2-(7-methoxy-1-benzofuran-3-yl)-1-methylethyl)piperazin-1-yl]quinoline]
8.71 | 47 | COc1cc(N2CCN(CCc3coc4ccc(OC)cc34)CC2)c2ncccc2c1 [Compound 25, 8-{4-[2-(5-methoxy-1-benzofuran-3-yl)ethyl]-1-piperazinyl}-6-methoxy-quinoline]
0.37 | 17 | Fc1ccc2occ(CCN3CCN(c4cccc5cccnc45)CC3)c2c1 [Compound 15, 8-{4-[2-(5-fluoro-1-benzofuran-3-yl)ethyl]-1-piperazinyl}-quinoline]
0.14 | 3.79 | COc1cccc2c(CCN3CCN(c4cc(Cl)cc5cccnc45)CC3)coc12 [Compound 20, 8-{4-[2-(7-methoxy-1-benzofuran-3-yl)ethyl]-1-piperazinyl}-6-chloro-quinoline]
0.91 | 4.17 | COc1cccc2c(C(C)CN3CCN(c4cccc5cccnc45)CC3)coc12 (stereo not drawn) [Compound 31, 8-{4-[2-(7-methoxy-1-benzofuran-3-yl)propyl]-1-piperazinyl}quinoline]
0.34 | 5.5 | COc1ccc2occ(CC(C)N3CCN(c4cc(Cl)cc5cccnc45)CC3)c2c1 (stereo not drawn) [Compound 39, 6-chloro-8-{4-[2-(5-methoxy-1-benzofuran-3-yl)-1-methylethyl)piperazin-1-yl]quinoline]
9.13 | 35 | COc1cccc2c(C(C)CN3CCN(c4cc(C)cc5cccnc45)CC3)coc12 (stereo not drawn) [Compound 34, 8-{4-[2-(7-methoxy-1-benzofuran-3-yl)propyl]-1-piperazinyl}-6-methyl-quinoline]
14.4 | 16.5 | COc1ccc2occ(CCN3CCN(c4cc(F)cc5cccnc45)CC3)c2c1 [Compound 26, 8-{4-[2-(5-methoxy-1-benzofuran-3-yl)ethyl]-1-piperazinyl}-6-fluoro-quinoline]
8.19 | 58 | COc1cccc2c(C(C)CN3CCN(c4cc(Cl)cc5cccnc45)CC3)coc12 (stereo not drawn) [Compound 33, 8-{4-[2-(7-methoxy-1-benzofuran-3-yl)propyl]-1-piperazinyl}-6-chloro-quinoline]
16.1 | 471 | Fc1cc(N2CCN(CCc3coc4cc(Cl)ccc34)CC2)c2ncccc2c1 [Compound 6, 8-{4-[2-(6-chloro-1-benzofuran-3-yl)ethyl]-1-piperazinyl}-6-fluoro-quinoline]
2.48 | 60 | COc1cc(N2CCN(CCc3coc4ccccc34)CC2)c2ncccc2c1 [Compound 4, 8-{4-[2-(1-benzofuran-3-yl)ethyl]-1-piperazinyl}-6-methoxyquinoline]
20 | 28.5 | COc1ccc2occ(CCN3CCN(c4cc(C)cc5cccnc45)CC3)c2c1 [Compound 23, 8-{4-[2-(5-methoxy-1-benzofuran-3-yl)ethyl]-1-piperazinyl}-6-methyl-quinoline]
0.23 | 4.16 | COc1cc(N2CCN(C(C)Cc3coc4c(OC)cccc34)CC2)c2ncccc2c1 (stereo not drawn) [Compound 36, 6-methoxy-8-{4-[2-(7-methoxy-1-benzofuran-3-yl)-1-methylethyl)piperazin-1-yl]quinoline]
1.59 | 16.5 | Fc1cc(N2CCN(CCc3coc4ccc(F)cc34)CC2)c2ncccc2c1 [Compound 17, 8-{4-[2-(5-fluoro-1-benzofuran-3-yl)ethyl]-1-piperazinyl}-6-fluoro-quinoline]
1.77 | 130 | COc1ccc2occ(CC(C)N3CCN(c4cc(C)cc5cccnc45)CC3)c2c1 (stereo not drawn) [Compound 40, 6-methyl-8-{4-[2-(5-methoxy-1-benzofuran-3-yl)-1-methylethyl)piperazin-1-yl]quinoline]
